Measurements reported in patent US8664276B2, “Stilbene analogs and methods of treating cancer” (University of Kentucky Research Foundation, priority 2011, dated 2014).
“Also recorded” adds a separate entry of the source.

Tests used:
[1] = test system: Wnt target genes, Axin2 and c-Myc; assay: Western blot of Wnt target proteins in LS174 CRC cells; format: cell-based
Experimental: Western blot. Western blots were performed using the following antibodies: β-catenin (Sigma, C2206), c-Myc (Epitomics, 1472-1), Axin2 (Cell Signaling, 2151), β-Actin (Sigma, A1978), TCF4 (Epitomics, 2114-1) and pygopus2 (Santa Cruz, sc-74878), Cyclin D1 (Cell signaling, 2926).
Cyclin B1 levels were decreased, whereas p21^WAF1/CIP1 levels increased, consistent with the fact that p21^WAF1/CIP1 expression is repressed by c-Myc. β-catenin levels were not affected by resveratrol. Next, the mRNA levels of β-catenin target genes were analyzed using RT-PCR. Expression of survivin, Lgr5, CD44, and c-Myc were decreased in resveratrol-treated cells.
A panel of stilbene analogs was designed and synthesized (FIGS. 2, 3, 5A and 6A). […] However, the solubility of 4d was poor and it was not effective below 10 μM concentrations (data not shown). To improve its solubility and activity, compound 4d was modified with 2′-fluoro 4e, 3′-fluoro 4f and 4′-fluoro 4g substituents (FIG. 5D). Both compounds 4e and 4f had good activity at 10 μM, (E)-4-(2-fluorostyryl)-N,N-dimethylaniline.
(§1) Western blot and cell proliferation assay. The activity of fluorinated N,N-dialkylaminostilbenes (FIDAS or FIDAS agents) on Wnt signaling activity in cancer cells were analyzed by Western blot with antibodies against Wnt target genes, such as c-Myc, Axin2. The effects of FlDAS agents on cancer cell growth were analyzed using Cell Viability Analyzer (Beckman Coulter, Vi-Cell XR). These assays have been described previously (see Zhang et al., J. of Med. Chem. 54, 1288-1297 (2011)).

LS174 CRC cells = assay: CRC cell proliferation assay (Vi-Cell); format: cell-based; details: for colon cancer cell proliferation, effectiveness versus resveratrol and 4r: FIG. 14
Experimental: Luciferase and cell proliferation assay. HEK293T cells were transiently transfected in a 12-well plate with 0.2 μg of the Super8xTOPFlash reporter and 0.05 μg of Renilla luciferase reporter. Culture medium was changed after 12 h. After 6 h, cells were treated with DMSO or Wnt inhibitors for 12 h, and then treated with 25 mM LiCl or Wnt conditioned medium. After 12 h, cells were harvested and luciferase activity measured by Dual-luciferase Reporter Assay System (Promega, Madison Wis.). All conditions were done in triplicate and each experiment was carried out at least two times. For cell proliferation assay, CRC cells were treated with DMSO or inhibitors for 2d and 4d. The cell numbers and viability were analyzed by Vi-Cell Cell Viability Analyzer.
as §1

Wnt signaling = assay: TopFlash luciferase reporter assay in HEK293T cells; format: cell-based
Experimental: Luciferase and cell proliferation assay. HEK293T cells were transiently transfected in a 12-well plate with 0.2 μg of the Super8xTOPFlash reporter and 0.05 μg of Renilla luciferase reporter. Culture medium was changed after 12 h. After 6 h, cells were treated with DMSO or Wnt inhibitors for 12 h, and then treated with 25 mM LiCl or Wnt conditioned medium. After 12 h, cells were harvested and luciferase activity measured by Dual-luciferase Reporter Assay System (Promega, Madison Wis.). All conditions were done in triplicate and each experiment was carried out at least two times. For cell proliferation assay, CRC cells were treated with DMSO or inhibitors for 2d and 4d. The cell numbers and viability were analyzed by Vi-Cell Cell Viability Analyzer. To identify Wnt pathway inhibitors for CRC prevention and treatment, a number of anti-cancer agents from plants were screened using the TopFlash reporter assay. The TopFlash reporter was transfected into HEK293T cells, and the cells were treated with Wnt3A-conditioned medium in order to activate the luciferase reporter. […] To determine if resveratrol regulates β-catenin degradation, the cells were treated with 25 mM LiCl, which inhibits GSK-3 and stabilizes β-catenin. In this assay, LiCl activated the reporter more strongly than Wnt3A conditioned medium. […] Emodin is an anti-cancer agent from plants; it exists in many unpurified resveratrol products. Emodin had no effect on Wnt signaling. See Zhang et al., J. of Med. Chem. 54, 1288-1297 (2011).

liver cancer cells = assay: Liver cancer cell proliferation; format: cell-based; details: FIG. 15
Experimental: as §1
As previously shown, several metabolites of the halogenated stilbenes of the present disclosure were synthesized (Example 2 and FIG. 3). In this study, the effects of some of these metabolites on cell proliferation were studied.

| Structure (SMILES) | melting point | Wnt inhibitory activity in Western blot, qualitative or relative to a comparator ([1]; CRC cells) | also measured |
| --- | --- | --- | --- |
| COc1ccc(/C=C/c2ccccc2)cc1 [4b, (E)-4-Methoxystilbene] | 136 to 137 °C | – | – |
| CCN(CC)c1ccc(/C=C/c2ccccc2F)cc1 [4h, (E)-4-(2-Fluorostyryl)-N,N-diethylaniline] | 78 to 79 °C | not as potent as compound 4e | repression of Wnt target genes at 10 μM ([1]; CRC cells): active |
| CCN(CC)c1ccc(/C=C/c2c(F)cccc2F)cc1 [4s, (E)-4-(2,6-Difluorostyryl)-N,N-diethylaniline] | 70 to 71 °C | slightly less active than compound 4r; also recorded: active Wnt inhibitor | – |
| CN(C)c1ccc(/C=C/c2cc(F)cc(F)c2)cc1 [4u, (E)-4-(3,5-Difluorostyryl)-N,N-dimethylaniline] | 136 to 137 °C | – | – |
| CN(C)c1ccccc1/C=C/c1c(F)cccc1F [4p, (E)-2-(2,6-Difluorostyryl)-N,N-dimethylaniline] | – | not as active as compound 4r | – |
| CN(C)c1ccc(/C=C/c2ccc(F)c(F)c2)cc1 [4t, (E)-4-(3,4-Difluorostyryl)-N,N-dimethylaniline] | 159 to 160 °C | – | – |
| CN(C)c1ccc(/C=C/c2ccccc2F)cc1 [4e, (E)-4-(2-Fluorostyryl)-N,N-dimethylaniline] | 124 to 126 °C | best among all of the monofluoro-substituted compounds | repression of Wnt target genes at 10 μM ([1]; CRC cells): good activity; CRC cell growth inhibition compared with other compounds (LS174 CRC cells; cell proliferation assay): significantly better inhibitor |
| CN(C)c1ccc(/C=C/c2c(F)cccc2Cl)cc1 [4x, (E)-4-(2-chloro-6-fluorostyryl)-N,N-dimethylaniline] | 42 to 44 °C | – | – |
| CN(C)c1ccc(CCc2c(F)cccc2F)cc1 [5r, (E)-4-(2,6-Difluorophenethyl)-N,N-dimethylaniline] | – | the activity was lost | – |
| Cc1cc(O)c2c(c1)C(=O)c1cc(O)cc(O)c1C2=O [Emodin] | – | – | effect on Wnt signaling (Wnt signaling): no effect |
| C[N+](C)([O-])c1ccc(/C=C/c2c(F)cccc2Cl)cc1 [4aa, (E)-4-(2-chloro-6-fluorostyryl)-N,N-dimethylaniline oxide] | 82 to 84 °C | – | colon cancer cell proliferation, effectiveness versus resveratrol and 4r (LS174 CRC cells): significantly more effective than resveratrol, as well as compound 4r; liver cancer cell proliferation, effectiveness versus resveratrol and 4r (liver cancer cells): significantly more effective than resveratrol, as well as compound 4r |
| CN(C)c1ccc(/C=C/c2ccccc2F)c2ccccc12 [4k, (E)-4-(2-Fluorostyryl)-N,N-dimethylnaphthalen-1-amine] | 56 to 58 °C | – | – |
| CN(C)c1ccc(/C=C/c2c(Cl)cccc2Cl)cc1 [4y, (E)-4-(2,6-dichlorostyryl)-N,N-dimethylaniline] | 96 to 97 °C | – | – |
| CN(C)c1ccc(/C=C/c2cccc(F)c2)cc1 [4f, (E)-4-(3-Fluorostyryl)-N,N-dimethylaniline] | 147 to 148 °C | – | repression of Wnt target genes at 10 μM ([1]; CRC cells): good activity |
| Fc1ccccc1/C=C/c1ccc(N(c2ccccc2)c2ccccc2)cc1 [4i, (E)-4-(2-Fluorostyryl)-N,N-diphenylaniline] | 114 to 115 °C | – | repression of Wnt target genes at 10 μM ([1]; CRC cells): inactive |
| CN(C)c1ccc(/C=C/c2cc(F)ccc2F)cc1 [4o, (E)-4-(2,5-Difluorostyryl)-N,N-dimethylaniline] | 146 to 147 °C | more active than compound 4e | repression of Wnt target genes at 10 μM ([1]; CRC cells): repress Wnt target genes |
| CN(C)c1ccc(/C=C/c2c(F)ccc(F)c2F)cc1 [4v, (E)-N,N-Dimethyl-4-(2,3,6-trifluorostyryl)aniline] | 91 to 92 °C | no significant improvements over compound 4r | repression of Wnt target genes at 10 μM ([1]; CRC cells): active |
| Oc1ccc(/C=C\c2cc(O)cc(O)c2)cc1 [cis- or (Z)-resveratrol, reference compound] | – | – | protein levels of c-Myc and Cyclin D1 ([1]; LS174 CRC cells): reduced by resveratrol but not its isomer |
| CN(C)c1ccc(/C=C/c2cccc(F)c2F)cc1 [4m, (E)-4-(2,3-Difluorostyryl)-N,N-dimethylaniline] | 132 to 133 °C | more active than compound 4e | repression of Wnt target genes at 10 μM ([1]; CRC cells): repress Wnt target genes |
| CN(C)c1ccc(/C=C/c2ccc(F)cc2)cc1 [4g, (E)-4-(4-Fluorostyryl)-N,N-dimethylaniline] | 197 to 198 °C | – | – |
| CNc1ccc(C=Cc2c(Cl)cccc2Cl)cc1 [4ee, (E and Z)-4-(2,6-dichlorostyryl)-N-methylaniline] | – | – | colon cancer cell proliferation, effectiveness versus resveratrol and 4r (LS174 CRC cells): significantly more effective than resveratrol, as well as compound 4r; liver cancer cell proliferation, effectiveness versus resveratrol and 4r (liver cancer cells): significantly more effective than resveratrol, as well as compound 4r |
| Nc1ccc(C=Cc2ccccc2)cc1 [4c, 4-aminostilbene, reference compound] | – | – | repression of Wnt target genes at 30 μM ([1]; 30 μM, CRC cells): represses Wnt target genes |
| C[N+](C)([O-])c1ccc(/C=C/c2c(Cl)cccc2Cl)cc1 [4bb, (E)-4-(2,6-dichlorostyryl)-N,N-dimethylaniline oxide] | 80 to 82 °C | – | – |
| CN(C)c1ccc(/C=C/c2c(F)cc(F)cc2F)cc1 [4w, (E)-N,N-Dimethyl-4-(2,4,6-trifluorostyryl)aniline] | 127 to 128 °C | no significant improvements over compound 4r | repression of Wnt target genes at 10 μM ([1]; CRC cells): active |
| C[N+](C)([O-])c1ccc(/C=C/c2c(F)cccc2F)cc1 [4z, (E)-4-(2,6-difluorostyryl)-N,N-dimethylaniline oxide] | 100 to 103 °C | – | – |
| CN1CCN(c2ccc(/C=C/c3ccccc3F)cc2)CC1 [4j, (E)-1-(4-(2-Fluorostyryl)phenyl)-4-methylpiperazine] | 142 to 144 °C | – | – |
| CN(C)c1ccc(/C=C/c2ccc(F)cc2F)cc1 [4n, (E)-4-(2,4-Difluorostyryl)-N,N-dimethylaniline] | 139 to 140 °C | – | – |
| CN(C)c1cccc(/C=C/c2c(F)cccc2F)c1 [4q, (E)-3-(2,6-Difluorostyryl)-N,N-dimethylaniline] | 69 to 71 °C | not as active as compound 4r | – |
